Molecules are shown by their SMILES. Where two headings read alike, the source gives them in different places.

Holding throughout (type): in vivo
Experiment [1] concerns rice (Oryra sativa). As to the kind of experiment: Test B flooded paddy test. As to conditions: Oryza sativa, Flood, 250 g ai/ha; scale of 0 to 100 where 0 is no effect and 100 is complete control; read-out: Rice plant response rating. Summed up:
(§1)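 Compound goes directly into floodwater once pots are flooded 3 cm above soil, targeting plants at two leaves; the water depth is then held for the test duration. Plants sit 13–15 d in a greenhouse and are rated visually, 100 denoting complete control.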

Experiment [2] deals with ducksalad (Heteranthera limosa). The experiment in a line: Test B flooded paddy test. As to conditions: Heteranthera limosa, Flood, 250 g ai/ha; scale of 0 to 100 where 0 is no effect and 100 is complete control; read-out: Ducksalad plant response rating. Summed up: as §1
Experiment [3] concerns barnyardgrass (Echinochloa crus-galli). The experiment in a line: Test B flooded paddy test. As to conditions: Echinochloa crus-galli, Flood, 250 g ai/ha; scale of 0 to 100 where 0 is no effect and 100 is complete control; read-out: Barnyardgrass plant response rating. Summed up:
as §1

The subject of experiment [4] is sedge, umbrella (small-flower umbrella sedge, Cyperus difformis). The experiment in a line: Test B flooded paddy test. As to conditions: Cyperus difformis, Flood, 250 g ai/ha; scale of 0 to 100 where 0 is no effect and 100 is complete control; read-out: Sedge, Umbrella plant response rating. The procedure, abridged: as §1
The subject of experiment [5] is barnyardgrass (Echinochloa crus-galli). The experiment in a line: Test A postemergence. As to conditions: Echinochloa crus-galli, post-emergence, 240 h; for pest or weed control at 125 g/ha: 125 g ai/ha, postemergence; for pest or weed control at 31 g/ha: Postemergence, 31 g ai/ha, visual injury after approx. 10 d, 0 to 100 scale, 0 no effect, 100 complete control. Summed up: (§2)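 Each rating is a visual injury score from 0 to 100 given about 10 d after treatment, judged against untreated controls kept alongside in the greenhouse. In loam soil–sand blend, seeds got a preemergence directed soil spray, while postemergence plants were 2 to 10 cm tall at spraying.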

Experiment [6] has as its system ryegrass, Italian (Italian ryegrass, Lolium multiflorum). As to the kind of experiment: Test A postemergence. As to conditions: Lolium multiflorum, post-emergence, 240 h; for pest or weed control at 125 g/ha: 125 g ai/ha, postemergence; for pest or weed control at 31 g/ha: Postemergence, 31 g ai/ha, visual injury after approx. 10 d, 0 to 100 scale, 0 no effect, 100 complete control. The procedure, abridged: as §2

Experiment [7] has as its system ragweed (common ragweed, Ambrosia elatior). As to the kind of experiment: Test A postemergence. As to conditions: Ambrosia artemisiifolia, post-emergence, 240 h; for pest or weed control at 125 g/ha: 125 g ai/ha, postemergence; for pest or weed control at 31 g/ha: Postemergence, 31 g ai/ha, visual injury after approx. 10 d, 0 to 100 scale, 0 no effect, 100 complete control. Summed up:
as §2

The subject of experiment [8] is Kochia (Kochia scoparia). As to the kind of experiment: Test A postemergence. As to conditions: Bassia scoparia, post-emergence, 240 h; for pest or weed control at 125 g/ha: 125 g ai/ha, postemergence; for pest or weed control at 31 g/ha: Postemergence, 31 g ai/ha, visual injury after approx. 10 d, 0 to 100 scale, 0 no effect, 100 complete control. Summed up:
as §2

Experiment [9] concerns pigweed (Amaranthus retroflexus). As to the kind of experiment: Test A postemergence. As to conditions: Amaranthus retroflexus, post-emergence, 240 h; for pest or weed control at 125 g/ha: 125 g ai/ha, postemergence; for pest or weed control at 31 g/ha: Postemergence, 31 g ai/ha, visual injury after approx. 10 d, 0 to 100 scale, 0 no effect, 100 complete control. The procedure, abridged: as §2

The test system of experiment [10] is giant foxtail (Setaria faberii). As to the kind of experiment: Test A postemergence. As to conditions: Setaria faberi, post-emergence, 240 h; for pest or weed control at 125 g/ha: 125 g ai/ha, postemergence; for pest or weed control at 31 g/ha: Postemergence, 31 g ai/ha, visual injury after approx. 10 d, 0 to 100 scale, 0 no effect, 100 complete control. The procedure, abridged: as §2

The test system of experiment [11] is Galium (catchweed bedstraw, Galium aparine). The experiment in a line: Test A postemergence. As to conditions: Galium, post-emergence, 240 h; for pest or weed control at 125 g/ha: 125 g ai/ha, postemergence; for pest or weed control at 31 g/ha: Postemergence, 31 g ai/ha, visual injury after approx. 10 d, 0 to 100 scale, 0 no effect, 100 complete control. The procedure, abridged:
as §2

Experiment [12] deals with blackgrass (Alopecurus myosuroides). As to the kind of experiment: Test A postemergence. As to conditions: Alopecurus myosuroides, post-emergence, 240 h; for pest or weed control at 125 g/ha: 125 g ai/ha, postemergence; for pest or weed control at 31 g/ha: Postemergence, 31 g ai/ha, visual injury after approx. 10 d, 0 to 100 scale, 0 no effect, 100 complete control. The procedure, abridged: as §2

The subject of experiment [13] is corn (Zea mays). The experiment in a line: Test A postemergence. As to conditions: Zea mays, post-emergence, 240 h; for plant injury at 125 g/ha: visual injury rating after approximately 10 d, read-out: Corn plant response rating (0 to 100 scale, 0 no effect, 100 complete control); for Corn plant response rating (crop injury, 0 = no effect, 100 = complete kill) at 31 g/ha: Postemergence, 31 g ai/ha, visual injury after approx. 10 d, 0 to 100 scale, 100 complete control. Summed up: as §2

In experiment [14] the test system is wheat (Triticum aestivum). The experiment in a line: Test A postemergence. As to conditions: Triticum aestivum, post-emergence, 240 h; for plant injury at 125 g/ha: 125 g ai/ha, postemergence; for plant injury at 31 g/ha: Postemergence, 31 g ai/ha, visual injury after approx. 10 d, 0 to 100 scale, 0 no effect, 100 complete control. Summed up: as §2
Setting [15] is: visual injury rating after approximately 10 d, read-out: Barnyardgrass plant response rating (0 to 100 scale, 0 no effect, 100 complete control).
[16] abbreviates: read-out: Plant response rating, Barnyardgrass.
The mark [17] stands for this setting: visual injury rating after approximately 10 d, read-out: Ryegrass, Italian plant response rating (0 to 100 scale, 0 no effect, 100 complete control).
[18] abbreviates: read-out: Plant response rating, Ryegrass, Italian.
Setting [19] is: visual injury rating after approximately 10 d, read-out: Ragweed plant response rating (0 to 100 scale, 0 no effect, 100 complete control).
[20] abbreviates: read-out: Plant response rating, Ragweed.
The mark [21] stands for this setting: visual injury rating after approximately 10 d, read-out: Kochia plant response rating (0 to 100 scale, 0 no effect, 100 complete control).
Setting [22] is: read-out: Plant response rating, Kochia.
[23] abbreviates: visual injury rating after approximately 10 d, read-out: Pigweed plant response rating (0 to 100 scale, 0 no effect, 100 complete control).
The mark [24] stands for this setting: read-out: Plant response rating, Pigweed.
Setting [25] is: visual injury rating after approximately 10 d, read-out: Foxtail, Giant plant response rating (0 to 100 scale, 0 no effect, 100 complete control).
Setting [26] is: read-out: Plant response rating, Foxtail, Giant.
The mark [27] stands for this setting: visual injury rating after approximately 10 d, read-out: Galium plant response rating (0 to 100 scale, 0 no effect, 100 complete control).
The mark [28] stands for this setting: read-out: Plant response rating, Galium.
[29] abbreviates: visual injury rating after approximately 10 d, read-out: Blackgrass plant response rating (0 to 100 scale, 0 no effect, 100 complete control).
The mark [30] stands for this setting: read-out: Plant response rating, Blackgrass.
The mark [31] stands for this setting: visual injury rating after approximately 10 d, read-out: Wheat plant response rating (0 to 100 scale, 0 no effect, 100 complete control).
Where [32] appears, read: read-out: Plant response rating, Wheat.

Consider `CN1C[C@H](c2ccc(C(F)(F)F)c(Br)c2)[C@@H](C(=O)Nc2cccc(F)c2F)C1=O` [Compound 804], for which the pest or weed control at 250 g/ha in experiment [1] was determined as 60%; in experiment [2] it was 80%; in experiment [3] it was 30%; in experiment [4], 0%. Moreover, the pest or weed control at 125 g/ha in [5] (setting [15]) amounted to 70%; in [6] (setting [17]), 0%; in experiment [7] (setting [19]) it was 0%; in experiment [8] (setting [21]), 70%; in experiment [9] (setting [23]), 60%; in experiment [10] (setting [25]), 80%. The figures for the pest or weed control at 125 g/ha in experiment [11] (setting [27]) and in experiment [12] (setting [29]) were 50% and 20%, respectively. Also, the pest or weed control at 31 g/ha in experiment [5] (setting [16]) was 20%; in experiment [6] (setting [18]), 0%; in experiment [7] (setting [20]), 0%; in experiment [8] (setting [22]), 40%; in experiment [9] (setting [24]) it was 50%; in experiment [10] (setting [26]), 60%. For the same compound, the pest or weed control at 31 g/ha in experiment [11] (setting [28]) was 40%; in experiment [12] (setting [30]) it was 0%. Besides, the plant injury at 125 g/ha amounted to 50% in experiment [13] (125 g ai/ha, postemergence) and 20% in experiment [14] (setting [31]). In experiment [13], this compound showed a Corn plant response rating (crop injury, 0 = no effect, 100 = complete kill) at 31 g/ha of 0%. Besides, in experiment [14] (setting [32]), the plant injury at 31 g/ha turned out to be 0%.

Take `CN1C[C@H](c2nccs2)[C@@H](C(=O)Nc2cccc(F)c2F)C1=O` [Compound 774]: the pest or weed control at 250 g/ha in experiment [1], in experiment [2], in experiment [3] and in [4] was 0% each time. For the same compound, the pest or weed control at 125 g/ha in [5] (visual injury after approximately 10 d, 0 to 100 scale (0 no effect, 100 complete control), read-out: Plant response rating, Barnyardgrass) turned out to be 0%; in experiment [6] (visual injury after approximately 10 d, 0 to 100 scale (0 no effect, 100 complete control), read-out: Plant response rating, Ryegrass, Italian), 0%; in experiment [7] (visual injury after approximately 10 d, 0 to 100 scale (0 no effect, 100 complete control), read-out: Plant response rating, Ragweed) it was 0%; in [8] (visual injury after approximately 10 d, 0 to 100 scale (0 no effect, 100 complete control), read-out: Plant response rating, Kochia) it was 0%; in experiment [9] (visual injury after approximately 10 d, 0 to 100 scale (0 no effect, 100 complete control), read-out: Plant response rating, Pigweed), 0%; in experiment [10] (visual injury after approximately 10 d, 0 to 100 scale (0 no effect, 100 complete control), read-out: Plant response rating, Foxtail, Giant) it was 0%. Besides, the pest or weed control at 125 g/ha was 0% in [11] (visual injury after approximately 10 d, 0 to 100 scale (0 no effect, 100 complete control), read-out: Plant response rating, Galium) and 0% in [12] (visual injury after approximately 10 d, 0 to 100 scale (0 no effect, 100 complete control), read-out: Plant response rating, Blackgrass). The compound further came in with a Corn plant response rating (crop injury, 0 = no effect, 100 = complete kill) at 125 g/ha in experiment [13] (125 g ai/ha, postemergence, visual injury after approximately 10 d, 0 to 100 scale (0 no effect, 100 complete control)) of 0%. Further, the plant injury at 125 g/ha in experiment [14] (visual injury after approximately 10 d, 0 to 100 scale (0 no effect, 100 complete control), read-out: Plant response rating, Wheat) was determined as 0%.

As to `CN1CC[C@H](c2cccc(OC(F)(F)F)c2)[C@@H](C(=O)Nc2ccccc2C(F)(F)F)C1=O` [Compound 806], the pest or weed control at 250 g/ha in experiment [1] was 0%; in experiment [2], 75%; in [3] it was 0%; in [4], 0%. Further, the pest or weed control at 125 g/ha in experiment [5] (setting [15]), in experiment [6] (setting [17]), in experiment [7] (setting [19]), in experiment [8] (setting [21]), in experiment [9] (setting [23]) and in [10] (setting [25]) was 0% throughout. In addition, the pest or weed control at 125 g/ha in experiment [11] (setting [27]) and in experiment [12] (setting [29]) was 0% in each case. The pest or weed control at 31 g/ha in experiment [5] (setting [16]), in experiment [6] (setting [18]), in experiment [7] (setting [20]), in experiment [8] (setting [22]), in experiment [9] (setting [24]) and in [10] (setting [26]) was 0% each time. In addition, the pest or weed control at 31 g/ha in [11] (setting [28]) and in experiment [12] (setting [30]) was 0% each time. The plant injury at 125 g/ha in experiment [13] (125 g ai/ha, postemergence) worked out at 0%; in experiment [14] (setting [31]) it was 0%. In experiment [13], this compound gave a Corn plant response rating (crop injury, 0 = no effect, 100 = complete kill) at 31 g/ha of 0%. The plant injury at 31 g/ha in experiment [14] (setting [32]) was 0%.

(Values after US12077503B2, “Substituted cyclic amides and their use as herbicides” (FMC CORPORATION, priority 2015, dated 2024).)
